The values below come from paper PMC8588041, “Protective Role of Flavonoids against Intestinal Pro-Inflammatory Effects of Silver Nanoparticles” (Molecules, 2021).

Series [1] deals with human neutrophils. Description: Neutrophil oxidative burst, DHR oxidation. The conditions noted are these: for Effect of inhibitors on AgNP-induced DHR oxidation: DPI 10 µM, VAS2870 25 µM, Gö6983 1 µM, added with AgNP 10 µg/mL (4 nm and 19 nm); for Percentage of inhibition at the highest tested concentration: 25 μM flavonoid. The method, then: All patient-related procedures and protocols were performed in accordance with the Declaration of Helsinki and approved by the Ethics Committee of Centro Hospitalar do Porto. After written informed consent was obtained, venous blood from healthy human volunteers was collected by antecubital phlebotomy into vacuum tubes with K3EDTA. The isolation of human neutrophils was performed by the density gradient centrifugation method, as previously reported by our research group. Cells were resuspended in Tris buffer (25 mM Tris, 1.26 mM CaCl2, 5.37 mM KCl, 0.81 mM MgSO4, 140 mM NaCl and 5.55 mM D-Glucose) and the cell viability and cell yield (number of cells/mL) were determined by the trypan blue exclusion method using a Neubauer chamber.
The measurement of neutrophil oxidative burst was performed by monitoring the oxidation of DHR, by neutrophil-generated reactive species. Neutrophils (3 × 10^6 cells/mL) were incubated in a humidified incubator, at 37 °C, with 4 nm or 19 nm AgNP (0–10 µg/mL) alone or with flavonoids (0–25 µM) followed by DHR (10 µM) for 1 h 30 min.
The NADPH oxidase inhibitors, DPI (10 µM) and VAS2870 (25 µM), and the protein kinase C (PKC) inhibitor, Gö6983 (1 µM), were also tested, by their concomitant addition with AgNP (10 µg/mL). The fluorescence was measured in a microplate reader (λexcitation = 507 ± 20 nm/λemmission = 529 ± 20 nm).

The test system of series [2] is Caco-2 cell line. Description: MTT reduction assay, cytotoxicity in Caco-2 cells. The conditions noted are these: for Protection against AgNP-induced cytotoxicity: 24 h co-incubation with 20 or 50 μg/mL AgNP (4 and 19 nm), non-toxic flavonoid concentrations (quercetagetin 50 µM); for Selected Maximum Concentration (maximum non-cytotoxic flavonoid concentration): Caco-2 cells, 24 h, MTT assay, tested 3.13 to 50 μM. On the procedure:
Cells were grown in a 5% CO2 atmosphere at 37 °C. For each experiment, the cells were used when reaching 80% of confluence, which represented 3 to 5 days of differentiation. Then, the proliferating Caco-2 cells were treated 24 h after seeding.
The MTT reduction assay was used to determine the cytotoxicity of PEI coated-AgNP of two sizes (4 and 19 nm) in the Caco-2 cell line. […] After the exposure period, the culture medium was replaced with fresh medium containing 0.5 mg/mL MTT and the cells were further incubated for 2 h. The resulting dark purple crystals of formazan were then dissolved in DMSO and the absorbance of the corresponding solution, which was directly proportional to the number of living cells, was measured in an automatic plate reader set at a test wavelength of 570 nm and a reference wavelength of 620 nm.

The test system of series [3] is Caco-2 cell line. Description: Annexin V-FITC versus propidium iodide flow cytometry (cell death). The conditions noted are these: for Apoptosis-preventive effect (apoptotic population versus AgNP controls): flavonoid 25 μM co-incubated 24 h with 4 nm and 19 nm AgNP 20 µg/mL, Caco-2. On the procedure:
The evaluation of cell death was analyzed by flow cytometry, following simultaneous staining with propidium iodide (PI) and Annexin V labeled with fluorescein isothiocyanate (FITC), according to a previously described method, using the Annexin V-FITC Apoptosis Detection Kit. Briefly, 5 × 10^5 cells/well were seeded in 6 well plates and exposed to 20 μg/mL AgNP (4 and 19 nm) and/or to the flavonoids quercetin or quercetagetin (25 μM) for 24 h. […] After the 24 h exposure, cell supernatants were discarded, and cells were washed with DPBS buffer and detached from cells plates with trypsin:EDTA solution. Individualized cells were counted in a Neubauer chamber, and after DPBS wash, cells were resuspended at a density of 1 × 10^6 cells/mL binding buffer provided by the kit. Subsequently, 1 × 10^5 cells were transferred to suitable cytometry tubes, and Annexin V-FITC and PI were added. The mixture was incubated for 15 min and at least 10,000 events were immediately read in a BD Accuri™ C6 Plus Flow Cytometer (BD biosciences, Becton, Franklin Lakes, NJ, USA). The green fluorescence corresponding to Annexin-V conjugated with FITC was followed in channel 1 (FL1) and plotted as a histogram of FL1 staining. Fluorescence due to the PI incorporation was followed in channel 3 (FL3).
(Flow cytometry measures light scatter and fluorescence of single cells or particles in a stream.)

The test system of series [4] is Caco-2 cell line. Description: Nitrite measurement by Griess reaction (•NO production). Format: cell-based, human. The conditions noted are these: for Prevention of AgNP-induced •NO production: flavonoids at maximum non-cytotoxic concentrations, Caco-2, 24 h, data not shown. On the procedure: Nitrite measurement was based on the colorimetric detection of the reaction product of nitrite with naphthylethylenediamine dihydrochloride. The concentration of nitrite, which reflects nitric oxide (^•NO) production, was measured in the cell-free supernatants collected from the Caco-2 cell line. […] After the incubation period, 150 μL of culture medium was collected and placed in 96-well plates. […] The absorbance was measured at 570 nm using an automatic plate reader.
(Griess reagent forms a coloured azo dye with nitrite.)

Series [5] has as its system human neutrophils. Description: Neutrophil viability, PI staining flow cytometry. Format: cell-based. The conditions noted are these: PEI 10 μg/mL, AgNO3 3 μg/mL, data not shown. The method, then:
Following exposure, cells were centrifuged (400× g at 20 °C, during 5 min) and the supernatant was discarded. The pellet was resuspended in DPBS solution and centrifuged (200g at 20 °C, during 5 min). After centrifugation, the pellet was resuspended with 100 μL propidium iodide solution (1 µg/mL) and incubated for 15 min in the dark. After this time, 400 μL of DPBS buffer was added and the fluorescence was measured in flow cytometer. To restrict the analysis to neutrophils only, a polygon gate was set according to their light scattering properties (in a forward vs. side scatter plot) excluding cell debris and other blood cells. Fluorescence signals for at least 10,000 cells were collected in logarithmic mode and the data were analyzed using C Flow (Accuri®) software (BD, Becton, Dickinson and Company, Franklin Lakes, NJ, USA).

In another series the test system is Caco-2 cells. The conditions noted are these: cited from earlier work.
Setting [6] is: Homo sapiens, Neutrophil, read-out: IC50 (Mean ± SEM), inhibition of AgNP 4 nm-induced oxidative burst, AgNP 4 nm, human neutrophils, DHR.
Where [7] appears, read: Homo sapiens, Neutrophil, read-out: IC50 (Mean ± SEM), inhibition of AgNP 19 nm-induced oxidative burst, AgNP 19 nm, human neutrophils, DHR.
The mark [8] stands for this setting: read-out: IC50 (Mean ± SEM), inhibition of AgNP 4 nm-induced oxidative burst, AgNP 4 nm, human neutrophils, DHR.

Structures are written as SMILES. Where two headings read alike, the source gives them in different places.

`c1ccc2c(c1)[I+]c1ccccc1-2` [DPI, diphenyleneiodonium chloride, reference compound]: the “Effect of inhibitors on AgNP-induced DHR oxidation” value (“Effect of inhibitors” for short) with human neutrophils [1] was “decreased DHR oxidation induced by 4nm and 19 nm AgNP”.
Turning to `O=c1c(O)c(-c2ccc(O)c(O)c2)oc2cc(O)c(O)c(O)c12` [Quercetagetin], the “Protection against AgNP-induced cytotoxicity” value in the series on Caco-2 cell line [2] is “prevented the cytotoxic effects of the two sizes of AgNP”; in the series with Caco-2 cell line [2] (listed as quercetagetin), “significantly reduced the cell death induced by AgNP of 4 and 19 nm”. For the same molecule, the “Selected Maximum Concentration (maximum non-cytotoxic flavonoid concentration)” value in the series with Caco-2 cell line [2] is 50.0 µM. Besides, the “Percentage of apoptotic cells on co-treatment” value in the series with Caco-2 cell line [3] (co-treatment with 4 nm AgNP (20 μg/mL), Caco-2, 24 h) is “increased the percentage of apoptotic cells”. For the same molecule, the “Apoptosis-preventive effect (apoptotic population versus AgNP controls)” value in the series with Caco-2 cell line [3] is recorded as “did not significantly decrease the apoptotic population”. The “Prevention of AgNP-induced •NO production” value in the series with Caco-2 cell line [4] is “neither quercetin nor quercetagetin prevented AgNP-induced ^•NO production”. Besides, the IC50 in the series with human neutrophils [1] (setting [6]) is less than 1000 nM; in the series on human neutrophils [1] (setting [7]) it was 3000 ± 200 nM; in the series with human neutrophils [1] (setting [8]), 530 ± 60 nM.
`O=c1c(O)c(-c2ccc(O)c(O)c2)oc2c(O)c(O)cc(O)c12` [Gossypetin]: the IC50 in the series with human neutrophils [1] (Homo sapiens, Neutrophil, read-out: IC50 (Mean ± SEM), inhibition of AgNP 4 nm-induced oxidative burst) was found to be 2100 ± 300 nM; with human neutrophils [1] (Homo sapiens, Neutrophil, read-out: IC50 (Mean ± SEM), inhibition of AgNP 19 nm-induced oxidative burst), 4500 ± 1200 nM.
For `O=[N+]([O-])[O-].[Ag+]` [AgNO3, Silver nitrate, reference compound], in the series with Caco-2 cell line [3] (PEI 20 μg/mL, AgNO3 4.5 μg/mL, Caco-2, 24 h, data not shown), the “Cell viability (Annexin V/PI)” value was “did not induce significant alterations in cell viability”. In addition, the “•NO production” value in the series on Caco-2 cell line [4] (9 μg/mL AgNO3, 24 h, Caco-2) is on record as “induced a significant production of ^•NO”. For the same molecule, the Neutrophil viability result in the series with human neutrophils [5] is on record as “did not affect neutrophil viability”. Moreover, in the series on human neutrophils [1] (PEI 10 μg/mL, AgNO3 3 μg/mL, data not shown), the Neutrophil oxidative burst entry is listed as “did not affect neutrophil oxidative burst”.
For the molecule `O=c1c(O)c(-c2ccc(O)cc2O)oc2cc(O)cc(O)c12` [Morin], the “Selected Maximum Concentration (maximum non-cytotoxic flavonoid concentration)” value with Caco-2 cell line [2] was 50.0 µM. Moreover, the IC50 in the series with human neutrophils [1] (setting [6]) worked out at 1400 ± 400 nM; with human neutrophils [1] (setting [7]), 1500 ± 400 nM.
In the case of `O=c1cc(-c2ccc(O)c(O)c2)oc2cc(O)cc(O)c12` [Luteolin], in the series on Caco-2 cell line [2], the “Selected Maximum Concentration (maximum non-cytotoxic flavonoid concentration)” value was 12.5 µM. Moreover, the IC50 in the series with human neutrophils [1] (setting [6]) and in the series on human neutrophils [1] (setting [7]) was 1300 ± 200 nM throughout.
Take `COc1ccc(-c2cc(=O)c3c(O)cc(O)cc3o2)cc1O` [Diosmetin]: the “Percentage of inhibition at the highest tested concentration” value came to 37 ± 3 % with human neutrophils [1] (AgNP 4 nm, human neutrophils, DHR) and 37 ± 7 % with human neutrophils [1] (AgNP 19 nm, human neutrophils, DHR). The IC50 with human neutrophils [1] (Homo sapiens, Neutrophil, read-out: IC50, inhibition of AgNP-induced neutrophil oxidative burst, AgNP of 4 and 19 nm, human neutrophils, DHR) was greater than 25000 nM.
On to `c1ccc(Cn2nnc3c(Sc4nc5ccccc5o4)ncnc32)cc1` [VAS2870, reference compound], for which, in the series with human neutrophils [1], the “Effect of inhibitors” value is “decreased DHR oxidation induced by 4nm and 19 nm AgNP”.
For `O=c1c(O)c(-c2ccc(O)c(O)c2)oc2cc(O)cc(O)c12` [Quercetin], the “Protection against AgNP-induced cytotoxicity” value is “partially prevented AgNP cytotoxicity” with Caco-2 cell line [2]; “significantly reduced the cell death induced by AgNP of 4 and 19 nm” in the series on Caco-2 cell line [2] (listed as quercetin). For the same molecule, the “Selected Maximum Concentration (maximum non-cytotoxic flavonoid concentration)” value with Caco-2 cell line [2] is 25.0 µM. Moreover, in the series with Caco-2 cell line [3], the “Apoptosis-preventive effect (apoptotic population versus AgNP controls)” value is on record as “reversed the pro-apoptotic effect of AgNP”. The “Prevention of AgNP-induced •NO production” value in the series with Caco-2 cell line [4] was “neither quercetin nor quercetagetin prevented AgNP-induced ^•NO production”. Moreover, the IC50 in the series with human neutrophils [1] (setting [6]) is less than 1000 nM; with human neutrophils [1] (setting [7]), 3100 ± 600 nM; in the series on human neutrophils [1] (setting [8]), 940 ± 90 nM. The “Reversal of loss of viability induced by AgNP” value in the series on Caco-2 cells (10 and 50 µM, Caco-2 cells treated with AgNP < 20 nm (30–90 μg/mL)) is recorded as “most effectively reversed the loss of viability induced by AgNP”. Besides, the “Reversal of toxicity induced by AgNP” value in the series with Caco-2 cells (quercetin 50 µM, AgNP ≥45 μg/mL, ref Martirosyan et al.) is “successfully reverted the toxicity induced by AgNP”.
In the case of `COc1ccc2c(c1)c(C1=C(c3c[nH]c4ccccc34)C(=O)NC1=O)cn2CCCN(C)C` [Gö6983, 3-[1-[3-(dimethylamino)propyl]-5-methoxy-1H-indol-3-yl]-4-(1H-indol-3-yl)-1H-pyrrole-2,5-dione, reference compound], in the series with human neutrophils [1], the “Effect of inhibitors” value is “prevented the activation of neutrophil oxidative burst induced by AgNP”.
As to `O=c1c(O)c(-c2cc(O)c(O)c(O)c2)oc2cc(O)cc(O)c12` [Myricetin], the “Selected Maximum Concentration (maximum non-cytotoxic flavonoid concentration)” value in the series with Caco-2 cell line [2] stood at 50.0 µM. For the same molecule, the IC50 in the series with human neutrophils [1] (setting [6]) came out at 2300 ± 100 nM; in the series on human neutrophils [1] (setting [7]) it was 3100 ± 200 nM.

The term IC50 denotes the concentration that gives 50% inhibition.
